In patent US10189880B2, “T cell receptors directed against Bob1 and uses thereof” (LEIDEN UNIVERSITY MEDICAL CENTER, priority 2014, dated 2019):
Values joined by “and” are separate entries in the source; they are usually repeats but may differ in a detail not shown here. Equal entries are not always repeated. “Also recorded” adds a separate entry of the source. Where two headings read alike, the source gives them in different places.

Columns and labels:
CD3+ΔCD19+ cells = assay: Phase 1 clinical trial of iCasp9 T cells after haploidentical stem cell transplantation; type: in vivo, human
Text: This example presents results of a phase 1 clinical trial using an alternative suicide gene strategy. Briefly, donor peripheral blood mononuclear cells were co-cultured with recipient irradiated EBV-transformed lymphoblastoid cells (40:1) for 72 hrs, allodepleted with a CD25 immunotoxin and then transduced with a retroviral supernatant carrying the iCasp9 suicide gene and a selection marker (ΔCD19); ΔCD19 allowed enrichment to >90% purity via immunomagnetic selection.
Patients developing Grade I GvHD were treated with 0.4 mg/kg AP1903 as a 2-hour infusion. Protocols for administration of AP1903 to patients developing Grade I GvHD were established as follows. Patients developing GvHD after infusion of allodepleted T cells are biopsied to confirm the diagnosis and receive 0.4 mg/kg of AP1903 as a 2 h infusion. […] Patients developing grades 2-4 GvHD were administered standard systemic immunosuppressive therapy per institutional guidelines, in addition to the AP1903 dimerizer drug.
Three patients received iCasp9+ T cells after haplo-CD34+ stem cell transplantation (SCT), at dose levels between about 1×10^6 to about 3×10^6 cells/kg.

[1] = AP1903 in vitro effective signaling of cells; type: cell-based
Description: The fixed dose of AP1903 for injection used, for example, may be 0.4 mg/kg intravenously infused over 2 hours. The amount of AP1903 needed in vitro for effective signaling of cells is about 10-100 nM (MW: 1412 Da). This equates to 14-140 μg/L or ˜0.014-0.14 mg/kg ([…]). The dosage may vary according to the application, and may, in certain examples, be more in the range of 0.1-10 nM, or in the range of 50-150 nM, 10-200 nM, 75-125 nM, 100-500 nM, 100-600 nM, 100-700 nM, 100-800 nM, or 100-900 nM. Doses up to 1 mg/kg were well-tolerated in the Phase I study of AP1903 described above.

[2] = cited from earlier work

Compound: CC[C@H](C(=O)N1CCCC[C@H]1C(=O)O[C@H](CCc1ccc(OC)c(OC)c1)c1cccc(OCC(=O)NCCNC(=O)COc2cccc([C@@H](CCc3ccc(OC)c(OC)c3)OC(=O)[C@@H]3CCCCN3C(=O)[C@@H](CC)c3cc(OC)c(OC)c(OC)c3)c2)c1)c1cc(OC)c(OC)c(OC)c1 (relative stereo) [AP1903, 2-Piperidinecarboxylic acid, 1-[(2S)-1-oxo-2-(3,4,5-trimethoxyphenyl)butyl]-, 1,2-ethanediylbis[imino(2-oxo-2,1-ethanediyl)oxy-3,1-phenylene[(1R)-3-(3,4-dimethoxyphenyl)propylidene]]ester, [2S-[1(R*),2R*[S[S*[1(R*),2R*]]]]]-(9Cl)]
- time to resolution of skin and liver aGvHD (CD3+ΔCD19+ cells; after AP1903 administration): ≤ 24 h
- ablation of CD3+ΔCD19+ cells (CD3+ΔCD19+ cells; within 30 minutes of infusion, patients with grade I/II aGvHD, 0.4 mg/kg): > 90%
- further reduction of CD3+ΔCD19+ cells (CD3+ΔCD19+ cells; within 24 hours): further log reduction
- amount needed in vitro for effective signaling of cells [1]: 10 to 100 nM
- amount needed for effective signaling, converted ([1]; MW: 1412 Da): 14 to 140 µg/L
- duration of the adverse event ([2]; 1.0 mg/kg): 32 min
- onset of the adverse event after start of infusion ([2]; 1.0 mg/kg): 3 min
- relation of plasma levels to dose ([2]; 0.01-1.0 mg/kg): directly proportional to dose
- adverse event considered possibly related to AP1903 ([2]; 1 volunteer at the 1.0 mg/kg dosage): vasodilatation
- plasma level as % of maximal concentration ([2]; 2 hours post-dose): ~7%
- plasma level as % of maximal concentration ([2]; 10 hours post-dose): ~1%
- serious adverse events ([2]; Phase 1 study in volunteers): No serious adverse events
- safety and tolerability ([2]; all dose levels, 0.01 to 1.0 mg/kg): well-tolerated; also recorded: No significant adverse effects
- incidence of adverse events ([2]; following each treatment): very low
- severity of adverse events ([2]; human, in vivo): mild
- mean Cmax / plasma concentrations ([2]; single IV infusion over 2 hours, 0.01-1.0 mg/kg dose range): 10 to 1275 ng/mL and 10 ng/mL
